{"source": "patent US20250127906A1", "about": "“SMALL-MOLECULE DEGRADERS OF CDK8 AND CDK19” (University of South Carolina, priority 2021, published 2025)", "key": {"[1]": {"test_system": "MV4-11 cells", "experiment": "Long-term growth of MV4-11 cells under continuous treatment", "format": "cell-based, human", "settings": "MV4-11, 300 nM continuous", "experimental": "The anti-proliferative effects of a PROTAC and a kinase inhibitor were compared in leukemia cell lines. In the long-term treatment experiment shown in FIG. 11A, Jurkat cells (0.1 million cells) were continuously treated with vehicle control (0.1% DMSO), 300 nM BI-1347 or 300 nM IA7886 for 53 days (each condition in biological triplicates). Every 7-8 days, live cells were counted using BioRAD TC20 Automated Cell Counter with trypan blue staining: 0.1 million live cells were passaged to a new T25 flask to propagate under the same treatment conditions. The survival fraction was calculated by dividing the accumulated number of drug-treated cells with the accumulated number of vehicle-treated cells. […] This sustained inhibition property of PROTAC was also observed in MV4-11, a leukemia cell line highly sensitive to CDK8/19 kinase inhibitors."}, "[2]": {"test_system": "pS727 STAT1 and total STAT1", "experiment": "pS727 STAT1 and total STAT1 in CT26 tumors in Balb/c mice", "format": "in vivo", "settings": "oral gavage 20 mg/kg, 2, 8 or 24 hrs after dosing", "experimental": "CT26 cells were injected subcutaneously into syngeneic Balb/c female mice and allowed to grow to 150˜200 mm^3. Tumor-bearing mice then received PROTACs IA7882 or IA7886 by oral gavage at 20 mg/kg in 30% propylene glycol/70% PEG-400 vehicle. Tumors were collected 2, 8 or 24 hrs after dosing and used to measure protein levels of CDK8, pS727 STAT1 and total STAT1 (by western blotting) and mRNA expression of CCL12, a gene that is inhibited by different CDK8/19 inhibitors in CT26 tumors in vivo (by QPCR)."}, "[3]": {"target": "CDK19 (Homo sapiens, UniProt Q9BWU1)", "sequence (Q9BWU1 whole entry)": "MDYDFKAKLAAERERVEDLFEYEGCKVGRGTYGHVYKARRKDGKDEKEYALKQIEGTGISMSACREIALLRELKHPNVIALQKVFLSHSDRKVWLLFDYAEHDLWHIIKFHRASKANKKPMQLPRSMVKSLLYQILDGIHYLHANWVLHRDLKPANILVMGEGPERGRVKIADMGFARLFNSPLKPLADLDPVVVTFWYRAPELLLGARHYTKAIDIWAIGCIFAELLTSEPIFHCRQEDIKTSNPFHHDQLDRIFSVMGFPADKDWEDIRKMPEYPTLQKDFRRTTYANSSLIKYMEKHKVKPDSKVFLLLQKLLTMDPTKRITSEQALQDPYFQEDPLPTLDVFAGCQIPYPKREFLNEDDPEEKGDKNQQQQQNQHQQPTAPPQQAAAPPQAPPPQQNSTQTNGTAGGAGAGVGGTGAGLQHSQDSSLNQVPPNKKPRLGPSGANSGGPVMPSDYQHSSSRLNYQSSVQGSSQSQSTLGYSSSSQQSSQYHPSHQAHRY", "sequence (P24863 whole entry partner)": "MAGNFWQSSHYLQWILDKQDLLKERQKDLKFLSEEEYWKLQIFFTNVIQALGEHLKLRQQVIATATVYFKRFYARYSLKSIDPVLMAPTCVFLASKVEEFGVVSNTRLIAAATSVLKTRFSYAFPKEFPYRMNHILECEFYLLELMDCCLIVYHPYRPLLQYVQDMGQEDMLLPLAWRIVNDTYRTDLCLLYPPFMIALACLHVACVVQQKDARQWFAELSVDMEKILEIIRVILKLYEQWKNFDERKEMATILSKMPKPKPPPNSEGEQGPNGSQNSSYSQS", "experiment": "CDK19 degradation in other human cell lines (22Rv1, MV4-11, HAP-1, HTB-185, SAOS2, SJSA-1)", "format": "cell-based", "set-up": "endogenous in cells", "settings": "24-hr treatment", "description": "FIG. 5 illustrates the effects of the novel PROTACs HP8580, IA7843 and IA7886 on CDK8 and CDK19 degradation in other human cell lines, including 22Rv1 prostate cancer (expressing more CDK19 than CDK8), MV4-11 (AML) and HAP-1 (CML) leukemia cell lines, HTB-185 medulloblastoma, and SAOS2 and SJSA-1 osteosarcoma (the latter expressing only CDK19 but not CDK8)."}, "[4]": {"target": "T1, CDK8 (Mus musculus, UniProt Q8R3L8)", "T1 sequence (Q8R3L8 1-464)": "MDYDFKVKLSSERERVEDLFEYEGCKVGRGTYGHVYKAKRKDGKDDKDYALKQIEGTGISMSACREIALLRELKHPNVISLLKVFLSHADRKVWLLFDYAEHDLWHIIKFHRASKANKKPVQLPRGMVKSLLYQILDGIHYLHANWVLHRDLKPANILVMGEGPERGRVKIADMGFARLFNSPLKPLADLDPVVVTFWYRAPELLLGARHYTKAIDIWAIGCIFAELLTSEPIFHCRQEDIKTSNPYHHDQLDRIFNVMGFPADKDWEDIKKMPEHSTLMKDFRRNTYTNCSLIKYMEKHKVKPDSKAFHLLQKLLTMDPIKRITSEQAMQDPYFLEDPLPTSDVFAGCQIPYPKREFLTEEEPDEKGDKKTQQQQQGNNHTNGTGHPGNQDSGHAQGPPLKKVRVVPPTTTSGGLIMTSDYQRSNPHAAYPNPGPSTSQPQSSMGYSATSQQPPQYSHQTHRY", "T1 sequence (Q62447 1-283 partner)": "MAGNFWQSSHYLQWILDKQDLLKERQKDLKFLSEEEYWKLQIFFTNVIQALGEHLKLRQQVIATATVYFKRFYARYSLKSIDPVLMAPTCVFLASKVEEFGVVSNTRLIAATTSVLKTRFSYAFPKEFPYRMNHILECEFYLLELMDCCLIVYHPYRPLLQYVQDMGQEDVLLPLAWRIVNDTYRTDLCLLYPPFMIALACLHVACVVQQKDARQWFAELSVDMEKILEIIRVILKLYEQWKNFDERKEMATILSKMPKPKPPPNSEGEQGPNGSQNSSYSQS", "experiment": "CDK8 degradation in murine CT26 colon carcinoma cells", "format": "cell-based", "set-up": "endogenous in cells; host or cells: CT26", "description": "Both the extent and the kinetics of CDK8 degradation were similar between two cell lines, with the degradation reaching maximum at about 8 hrs of PROTAC treatment."}, "[5]": {"target": "T2, CDK8 (Homo sapiens, UniProt P49336)", "experiment": "CDK8 degradation in HEK-293 cells (Western blot, normalized by GAPDH)", "format": "cell-based", "set-up": "endogenous in cells; host or cells: HEK-293", "outline": "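HEK-293 cells were treated for 24 h with or without compound, at 1 μM or 0.3 μM for single-point testing. RIPA lysates were immunoblotted for CDK8, and densitometry gave levels normalized to GAPDH. DC50 is the concentration that reduces CDK8 to half its level in untreated cells.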"}, "[6]": {"target": "T2, CDK8", "experiment": "CDK8 degradation in HEK-293 cells with CRISPR knockout of CCNC", "format": "cell-based", "set-up": "a derivative of HEK-293cells with CRISPR-mediated knockout of CCNC; endogenous in cells; host or cells: HEK-293 with CRISPR knockout of CCNC", "settings": "HEK-293 CCNC-knockout cells, 24 hr treatment", "description": "This cell line, however, is unique in lacking Cyclin C (CCNC), the binding partner of CDK8/19. To test if the absence of CDK8-bound CCNC was responsible for the loss of IA7843 CDK8-degrading activity, we have tested the effect of IA7843 on a derivative of HEK-293cells with CRISPR-mediated knockout of CCNC."}}, "data": [{"compound": "O=C(CCCNc1cccc2c1C(=O)N(C1CCC(=O)NC1=O)C2=O)NCCCCCCCCCCC(=O)N1CCN(C(=O)Cn2cc(-c3ccc(-c4cncc5ccccc45)cc3)cn2)CC1", "note": "(stereo not shown) [IA7886, 4-[[2-(2,6-dioxo-3-piperidyl)-1,3-dioxo-isoindolin-4-yl]amino]-N-[11-[4-[2-[4-[4-(4-isoquinolyl)phenyl]pyrazol-1-yl]acetyl]piperazin-1-yl]-11-oxo-undecyl]butanamide]", "values": [{"measurement": "growth inhibition over 60 days", "setting": "[1]", "value": "much more stable and continued for the entire 60 days"}, {"measurement": "pS727 STAT1 and total STAT1 in tumors", "setting": "[2]", "value": "decreased in most of the tumors collected 2 hrs or 8 hrs after dosing"}, {"measurement": "CDK19 degradation (in words)", "setting": "[3]", "value": "significantly degraded CDK8 and CDK19 in all the tested cell lines"}, {"measurement": "CDK8 degradation (in words)", "setting": "[4]", "value": "induce CDK8 degradation in both cell lines"}, {"measurement": "time at which CDK8 degradation reaches maximum", "setting": "[4]; 100 nM", "value": "about 8 hrs"}, {"measurement": "% CDK8 remaining", "setting": "[5]; HEK-293 cells, 24 hours, tested at 1 μM", "value": 19, "unit": "%"}, {"measurement": "CDK8 degradation (in words)", "setting": "[5]; HEK-293 cells, Western blot", "value": "most potent CDK8 degrader in this set"}, {"measurement": "DC50", "setting": "[5]; HEK-293 cells, concentration degrading CDK8 to half of level in untreated cells", "value": 2.8, "unit": "nM"}, {"measurement": "time at which CDK8 degradation reaches maximum", "setting": "[5]; human 293 cells, 100 nM", "value": "about 8 hrs"}, {"measurement": "CDK8 degradation (in words)", "setting": "[6]", "value": "efficiently degraded CDK8 and CDK19"}]}]}
